How the values were obtained:
[1] = test system: HBV replication in HepAD38 cells; assay: Anti-HBV replication assay in HepAD38 cells (QPCR of extracellular HBV DNA); assay type: cell-based, HBV (genotype D, serotype ayw); conditions: Hepatitis B virus, 168 h, 7 days incubation, extracellular HBV DNA by QPCR, read-out: Anti-HBV EC50
How it was run: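 HepAD38 cells (HepG2 carrying tet-repressible HBV genotype D genome) induced by tetracycline withdrawal, treated 7 days at 37 °C with compound ([…], 1-log10 dilutions). Extracellular HBV DNA quantified by QPCR against a standard curve, normalised to DMSO; EC50 from 4-parameter fit.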

[2] = In vitro cytotoxicity assay (MTT cell viability) in HepG2 cells; assay type: cell-based, human; conditions: human
How it was run: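 HepG2 seeded overnight, then 7-day compound exposure (30 μM–1.0 nM, half-log steps), 37 °C. MTT 3-4 h, DMSO solubilization, A492. % of vehicle → CC50, 4-PL fit.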

| SMILES | EC50 [1] [µM] | CC50 at 7 days [2] [µM] |
| --- | --- | --- |
| Cc1cc(NC(=O)c2c(C)c(C(=O)C(=O)NC3(CO)CC(F)(F)C3)n(C)c2Cl)ccc1F [Example 387, 2-chloro-5-(2-((3,3-difluoro-1-(hydroxymethyl)cyclobutyl)amino)-2-oxoacetyl)-N-(4-fluoro-3-methylphenyl)-1,4-dimethyl-1H-pyrrole-3-carboxamide] | > 1 | 5 to 30 |
| Cc1cc(NC(=O)c2c(C)c(C(=O)C(=O)NC3(c4nnn[nH]4)CCCC3)n(C)c2C)ccc1F [Example 636, 5-(2-((1-(1H-tetrazol-5-yl)cyclopentyl)amino)-2-oxoacetyl)-N-(4-fluoro-3-methylphenyl)-1,2,4-trimethyl-1H-pyrrole-3-carboxamide] | < 0.05 | > 30 |
| Cc1cc(NC(=O)c2c(C)c(C(=O)C(=O)Nc3nc(CO)cs3)n(C)c2C)ccc1F [Example 308, N-(4-fluoro-3-methylphenyl)-5-(2-((4-(hydroxymethyl)thiazol-2-yl)amino)-2-oxoacetyl)-1,2,4-trimethyl-1H-pyrrole-3-carboxamide] | 0.5 to 1 | > 30 |
| Cc1cc(NC(=O)c2c(C)c(C(=O)C(=O)N[C@H](CO)C(C)(C)C)n(C)c2C)ccc1F [Example 67, (S)—N-(4-fluoro-3-methylphenyl)-5-(2-((1-hydroxy-3,3-dimethylbutan-2-yl)amino)-2-oxoacetyl)-1,2,4-trimethyl-1H-pyrrole-3-carboxamide] | < 0.05 | > 30 |
| O=C(NC1(CO)CC1)C(=O)c1c(Cl)c(C(=O)Nc2ccc(F)c(Cl)c2)c2n1CCCC2 [Example 501, 2-chloro-N-(3-chloro-4-fluorophenyl)-3-(2-((1-(hydroxymethyl)cyclopropyl)amino)-2-oxoacetyl)-5,6,7,8-tetrahydroindolizine--1 carboxamide] | 0.05 to 0.499 | 5 to 30 |
| Cc1c(C(=O)Nc2ccc(F)c(F)c2)c2n(c1C(=O)C(=O)NC1(CO)CC(F)(F)C1)CCCC2 [Example 459, 3-(2-((3,3-difluoro-1-(hydroxymethyl)cyclobutyl)amino)-2-oxoacetyl)-N-(3,4-difluorophenyl)-2-methyl-5,6,7,8-tetrahydroindolizine-1-carboxamide] | 0.05 to 0.499 | 5 to 30 |
| Cc1cc(NC(=O)c2cc(C(=O)C(=O)NC(C)(C)C)n3c2CN(C(=O)OC(C)(C)C)CC3)ccc1F [Example 587, tert-butyl 6-(2-(tert-butylamino)-2-oxoacetyl)-8-((4-fluoro-3-methylphenyl)carbamoyl)-3,4-dihydropyrrolo[1,2-a]pyrazine-2(1H)-carboxylate] | 0.05 to 0.499 | > 30 |
| Cc1c(C(=O)Nc2ccnc(F)c2)c(C)n(C)c1C(=O)C(=O)NC(C)(C)C [Example 89, 5-(2-(tert-butylamino)-2-oxoacetyl)-N-(2-fluoropyridin-4-yl)-1,2,4-trimethyl-1H-pyrrole-3-carboxamide] | < 0.05 | > 30 |
| Cc1c(C(=O)Nc2cccc(C(F)F)c2)c(C)n(C)c1C(=O)C(=O)N[C@@H]1CC[C@@H](O)C1 [Example 721, N-(3-(difluoromethyl)phenyl)-5-(2-(((1R,3R)-3-hydroxycyclopentyl)amino)-2-oxoacetyl)-1,2,4-trimethyl-1H-pyrrole-3-carboxamide] | < 0.05 | > 30 |
| Cc1cc(NC(=O)c2c(C)c(C(=O)C(=O)NC3(C)CCN(c4nccs4)CC3)n(C)c2C)ccc1F [Example 699, N-(4-fluoro-3-methylphenyl)-1,2,4-trimethyl-5-(2-((4-mmethyl-1-(thiazol-2-yl)piperidin-4-yl)amino)-2-oxoacetyl)-1H-pyrrole-3-carboxamide] | < 0.05 | 5 to 30 |
| Cc1noc([C@H](C)NC(=O)C(=O)c2c(C)c(C(=O)Nc3ccc(F)c(F)c3)c3n2CCCC3)n1 [Example 464, (S)-N-(3,4-difluorophenyl)-2-methyl-3-(2-((1-(3-methyl-1,2,4-oxadiazol-5-yl)ethyl)amino)-2-oxoacetyl)-5,6,7,8-tetrahydroindolizine-1-carboxamide] | 0.05 to 0.499 | > 30 |
| CNC(=O)[C@@H](NC(=O)C(=O)c1c(C)c(C(=O)Nc2ccc(F)c(C)c2)c(C)n1C)C1CC1 [Example 123, (S)-5-(2-((1-cyclopropyl-2-(methylamino)-2-oxoethyl)amino)-2-oxoacetyl)-N-(4-fluoro-3-methylphenyl)-1,2,4-trimethyl-1H-pyrrole-3-carboxamide] | 0.05 to 0.499 | > 30 |
| Cc1cc(NC(=O)c2c(C)c(C(=O)C(=O)NC(C)(C)C)n(CCO)c2C)ccc1F [Example 71, 5-(2-(tert-butylamino)-2-oxoacetyl)-N-(4-fluoro-3-methylphenyl)-1-(2-hydroxyethyl)-2,4-dimethyl-1H-pyrrole-3-carboxamide] | > 1 | > 30 |
| Cc1c(C(=O)Nc2cccc(C(F)F)c2)c(C)n(C)c1C(=O)C(=O)N[C@H]1CC[C@H](O)CC1 [Example 697, N-(3-(difluoromethyl)phenyl)-5-(2-(((1r,4r)-4-hydroxycyclohexyl)amino)-2-oxoacetyl)-1,2,4-trimethyl-1H-pyrrole-3-carboxamide] | < 0.05 | > 30 |
| Cc1cc(NC(=O)c2c(C)c(C(=O)C(=O)NC3(C(=O)N[C@H](C)C(F)(F)F)CCOCC3)n(C)c2C)ccc1F [Example 605, (R)-N-(4-fluoro-3-methylphenyl)-1,2,4-trimethyl-5-(2-oxo-2-((4-((1,1,1-trifluoropropan-2-yl)carbamoyl)tetrahydro-2H-pyran-4-yl)amino)acetyl)-1H-pyrrole-3-carboxamide] | < 0.05 | > 30 |
| Cc1cc(NC(=O)c2c(C)c(C(=O)C(=O)NC3(C)CCN(S(C)(=O)=O)CC3)n(C)c2C)ccc1F [Example 613, N-(4-fluoro-3-methylphenyl)-1,2,4-trimethyl-5-(2-((4-methyl-1-(methylsulfonyl)piperidin-4-yl)amino)-2-oxoacetyl)-1H-pyrrole-3-carboxamide] | < 0.05 | > 30 |
| CC(=O)N1CCC[C@@H](NC(=O)C(=O)c2c(C)c(C(=O)Nc3ccc(F)c(C)c3)c(C)n2C)C1 [Example 639, (R)-5-(2-((1-acetylpiperidin-3-yl)amino)-2-oxoacetyl)-N-(4-fluoro-3-methylphenyl)-1,2,4-trimethyl-1H-pyrrole-3-carboxamide] | < 0.05 | > 30 |
| Cc1cc(NC(=O)c2c(C)c(C(=O)C(=O)NC34CC5CC(CC(O)(C5)C3)C4)n(C)c2C)ccc1F [Example 15, N-(4-fluoro-3-methylphenyl)-5-(2-(((1r,3s,5R,7S)-3-hydroxyadamantan-1-yl)amino)-2-oxoacetyl)-1,2,4-trimethyl-1H-pyrrole-3-carboxamide] | < 0.05 | > 30 |
| Cc1cc(NC(=O)c2c(Cl)c(C(=O)C(=O)NC(C)(C)C)n(C)c2C)cnc1F [Example 371, 5-(2-(tert-butylamino)-2-oxoacetyl)-4-chloro-N-(6-fluoro-5-methylpyridin-3-yl)-1,2-dimethyl-1H-pyrrole-3-carboxamide] | 0.05 to 0.499 | > 30 |
| Cc1cc(NC(=O)c2c(C)c(C(=O)C(=O)NC3(c4nc(-c5cnccn5)no4)CCCCC3)n(C)c2C)ccc1F [Example 631, N-(4-fluoro-3-methylphenyl)-1,2,4-trimethyl-5-(2-oxo-2-((1-(3-(pyrazin-2-yl)-1,2,4-oxadiazol-5-yl)cyclohexyl)amino)acetyl)-1H-pyrrole-3-carboxamide] | < 0.05 | > 30 |
| Cc1noc([C@H](C)NC(=O)C(=O)c2c(C)c(C(=O)Nc3cnc(F)c(C)c3)c3n2CCCC3)n1 [Example 471, (S)-N-(6-fluoro-5-methylpyridin-3-yl)-2-methyl-3-(2-((1-(3-methyl-1,2,4-oxadiazol-5-yl)ethyl)amino)-2-oxoacetyl)-5,6,7,8-tetrahydroindolizine-1-carboxamide] | 0.5 to 1 | > 30 |
| Cc1cc(NC(=O)c2c(C)c(C(=O)C(=O)N[C@H](C)C(C)(C)C)n(C)c2C)ccc1F [Example 63, (R)-5-(2-((3,3-dimethylbutan-2-yl)amino)-2-oxoacetyl)-N-(4-fluoro-3-methylphenyl)-1,2,4-trimethyl-1H-pyrrole-3-carboxamide] | < 0.05 | > 30 |
| Cc1cc(NC(=O)c2c(C)c(C(=O)NC(C)(C)CN3CCOCC3)n(C)c2C)ccc1F [Example 349, N4-(4-fluoro-3-methylphenyl)-1,3,5-trimethyl-N2-(2-methyl-1-morpholinopropan-2-yl)-1H-pyrrole-2,4-dicarboxamide] | > 1 | > 30 |
| CC(C)(CO)CNC(=O)C(=O)c1c(Cl)c(C(=O)Nc2ccc(F)c(Cl)c2)c2n1CCCC2 [Example 527, 2-chloro-N-(3-chloro-4-fluorophenyl)-3-(2-((3-hydroxy-2,2-dimethylpropyl)amino)-2-oxoacetyl)-5,6,7,8-tetrahydroindolizine-1-carboxamide] | 0.5 to 1 | 0.5 to 4.99 |
| Cc1c(C(=O)Nc2ccc(F)nc2)c(C)n(C)c1C(=O)C(=O)NC1(C(N)=O)CCCCC1 [Example 93, 5-(2-((1-carbamoylcyclohexyl)amino)-2-oxoacetyl)-N-(6-fluoropyridin-3-yl)-1,2,4-trimethyl-1H-pyrrole-3-carboxamide] | 0.05 to 0.499 | > 30 |
| Cc1c(C(=O)Nc2cccc(C(F)F)c2)c(C)n(C)c1C(=O)C(=O)N[C@@H]1CCC[C@@H](O)C1 [Example 704, N-(3-(difluoromethyl)phenyl)-5-(2-(((1R,3R)-3-hydroxycyclohexyl)amino)-2-oxoacetyl)-1,2,4-trimethyl-1H-pyrrole-3-carboxamide] | < 0.05 | > 30 |
